Read-outs that look alike come from different tables or passages of the source.
Target: T1, CFTR (Homo sapiens, UniProt P13569, DEL508-508)
T1 construct: endogenous in cells; host or cells: primary human bronchial epithelial cells from CF subjects (F508del/MF-HBE), differentiated at air-liquid interface
Experiment: HBE assay: Ussing chamber assay of CFTR-mediated short-circuit currents
Assay type: cell-based
Conditions: for EC50: read-out: HBE EC50; for activation at 10 µM: read-out: HBE Activity at 10 μM (%)
Method in brief: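 CFTR-mediated Isc (μA/cm²) equals the peak response to apical 20 μM forskolin minus the residual after a 20 μM each BPO/GlyH-101/CFTR inhibitor 172 cocktail, recorded in Ussing chambers at Vhold 0 mV, 37 °C, pH 7.4, with 30 μM apical amiloride. Cells were F508del/MF HBE cultures preincubated 18-24 h with corrector (concentration range or 10 μM) plus 1 μM ivacaftor in 20% human serum.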

[1] = Table 10, read-out: HBE Max activity (%)
[2] = Table 13, read-out: HBE Max Activity (%)
[3] = Table 12, read-out: HBE Max Activity (%)

T1 sequence (P13569 with tags, fused parts or gaps DEL508-508): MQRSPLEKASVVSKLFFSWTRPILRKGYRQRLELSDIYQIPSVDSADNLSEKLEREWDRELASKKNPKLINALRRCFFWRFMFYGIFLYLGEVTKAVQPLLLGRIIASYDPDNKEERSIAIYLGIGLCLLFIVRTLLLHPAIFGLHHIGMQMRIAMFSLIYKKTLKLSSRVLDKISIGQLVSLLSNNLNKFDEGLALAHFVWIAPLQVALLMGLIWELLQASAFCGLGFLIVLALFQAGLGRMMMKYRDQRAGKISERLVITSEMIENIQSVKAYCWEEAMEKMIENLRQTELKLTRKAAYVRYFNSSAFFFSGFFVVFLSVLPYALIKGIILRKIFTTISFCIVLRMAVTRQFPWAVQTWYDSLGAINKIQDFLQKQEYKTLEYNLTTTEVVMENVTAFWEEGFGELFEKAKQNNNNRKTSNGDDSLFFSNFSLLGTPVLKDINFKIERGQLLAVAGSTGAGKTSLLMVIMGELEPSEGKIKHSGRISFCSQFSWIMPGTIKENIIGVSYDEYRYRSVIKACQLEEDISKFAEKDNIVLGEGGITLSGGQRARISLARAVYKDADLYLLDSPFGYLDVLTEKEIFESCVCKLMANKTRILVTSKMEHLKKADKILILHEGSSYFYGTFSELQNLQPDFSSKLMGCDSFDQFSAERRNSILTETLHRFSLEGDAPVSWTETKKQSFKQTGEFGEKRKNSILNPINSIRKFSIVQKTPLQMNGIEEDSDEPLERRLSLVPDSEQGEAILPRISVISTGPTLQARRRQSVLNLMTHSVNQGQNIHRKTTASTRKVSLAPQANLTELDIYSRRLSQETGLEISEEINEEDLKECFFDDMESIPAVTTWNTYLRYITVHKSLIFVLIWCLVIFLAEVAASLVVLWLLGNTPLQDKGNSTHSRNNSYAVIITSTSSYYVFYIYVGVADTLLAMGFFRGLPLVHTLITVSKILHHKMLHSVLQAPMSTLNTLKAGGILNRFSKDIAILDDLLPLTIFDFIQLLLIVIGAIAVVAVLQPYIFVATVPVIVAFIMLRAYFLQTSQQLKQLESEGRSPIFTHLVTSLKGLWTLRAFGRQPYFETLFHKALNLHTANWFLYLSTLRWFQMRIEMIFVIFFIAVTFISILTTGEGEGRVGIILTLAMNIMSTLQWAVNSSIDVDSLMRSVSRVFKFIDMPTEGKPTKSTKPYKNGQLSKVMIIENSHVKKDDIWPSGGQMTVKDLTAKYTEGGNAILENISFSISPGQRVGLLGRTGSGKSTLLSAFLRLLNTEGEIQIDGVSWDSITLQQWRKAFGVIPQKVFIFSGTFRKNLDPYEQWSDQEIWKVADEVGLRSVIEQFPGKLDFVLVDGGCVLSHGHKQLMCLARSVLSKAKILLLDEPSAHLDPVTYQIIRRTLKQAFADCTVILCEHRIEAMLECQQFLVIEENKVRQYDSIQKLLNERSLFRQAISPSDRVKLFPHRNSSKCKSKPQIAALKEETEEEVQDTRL

Cc1cccc(C)c1-c1cc2nc(n1)NS(=O)(=O)c1cccc(c1)C(=O)N(Cc1ncccc1N(C)C)[C@H](CC(C)(C)C)CO2 [Compound 379] gave an EC50 (Table 10) of less than 1000 nM and an Emax [1] greater than 60%.

Cc1cccc(C)c1-c1cc2nc(n1)NS(=O)(=O)c1cccc(c1)C(=O)N(Cc1ccccn1)[C@H](CC(C)(C)C)CO2 [Compound 381] was tested, and the Emax [1] was greater than 60%.

For COc1cccnc1CN1C(=O)c2cccc(c2)S(=O)(=O)Nc2nc(cc(-c3c(C)cccc3C)n2)OC[C@H]1CC(C)(C)C [Compound 382], the EC50 (Table 10) was less than 1000 nM and the Emax [1] was greater than 60%.

For Cc1cccc(C)c1-c1cc2nc(n1)NS(=O)(=O)c1cccc(c1)C(=O)N(Cc1cccc(N3CCOCC3)n1)[C@H](CC(C)(C)C)CO2 [Compound 384], the EC50 (Table 10) was less than 1000 nM and the Emax [1] was greater than 60%.

Work on Cc1cccc(C)c1-c1cc2nc(n1)NS(=O)(=O)c1cccc(c1)C(=O)N(Cc1ccc(C(C)(C)C)cc1O)[C@H](CC(C)(C)C)CO2 [Compound 433] yielded an activation at 10 µM (Table 13) greater than 600%.

With Cc1cccc(C)c1-c1cc2nc(n1)NS(=O)(=O)c1cccc(c1)C(=O)N(Cc1nccc(N(C)C(C3CC3)C3CC3)n1)[C@H](CC(C)(C)C)CO2 [Compound 434] the activation at 10 µM (Table 13) was greater than 600%.

Work on Cc1cccc(C)c1-c1cc2nc(n1)NS(=O)(=O)c1cccc(c1)C(=O)N(Cc1nccc(N(C)C3CCC(C)(C)CC3)n1)[C@H](CC(C)(C)C)CO2 [Compound 435] yielded an EC50 (Table 13) of less than 1000 nM and an Emax [2] greater than 60%.

For Cc1cccc(C)c1-c1cc2nc(n1)NS(=O)(=O)c1cccc(c1)C(=O)N(Cc1nccc(N(C)C3CC(C)(C)C3)n1)[C@H](CC(C)(C)C)CO2 [Compound 436], the EC50 (Table 13) was less than 1000 nM and the Emax [2] was greater than 60%.

For Cc1cccc(C)c1-c1cc2nc(n1)NS(=O)(=O)c1cccc(c1)C(=O)N(Cc1cncc(N(C)C3CCC34CCC4)n1)[C@H](CC(C)(C)C)CO2 (stereo partly drawn) [Compound 437], the EC50 (Table 12) was less than 1000 nM and the Emax [3] was greater than 60%.

Work on Cc1cccc(C)c1-c1cc2nc(n1)NS(=O)(=O)c1cccc(c1)C(=O)N(Cc1cncc(N(C)C3CCC34CCC4)n1)[C@H](CC(C)(C)C)CO2 (stereo partly drawn) [Compound 438] yielded an EC50 (Table 12) of less than 1000 nM.

Work on Cc1cccc(C)c1-c1cc2nc(n1)NS(=O)(=O)c1cccc(c1)C(=O)N(Cc1cccc(N(C)C3CC4(CCC4)C3)n1)[C@H](CC(C)(C)C)CO2 [Compound 439] yielded an EC50 (Table 12) of less than 1000 nM and an Emax [3] greater than 60%.

Cc1cccc(C)c1-c1cc2nc(n1)NS(=O)(=O)c1cccc(c1)C(=O)N(Cc1cccc(NC34CC(C3)C4)n1)[C@H](CC(C)(C)C)CO2 [Compound 440] showed an EC50 (Table 12) of less than 1000 nM and an Emax [3] greater than 60%.

With Cc1cccc(C)c1-c1cc2nc(n1)NS(=O)(=O)c1cccc(c1)C(=O)N(Cc1cncc(N(C)C3CC4(CCC4)C3)n1)[C@H](CC(C)(C)C)CO2 [Compound 441] the EC50 (Table 12) was less than 1000 nM and the Emax [3] was greater than 60%.

Cc1cccc(C)c1-c1cc2nc(n1)NS(=O)(=O)c1cccc(c1)C(=O)N(Cc1cncc(N(C)CC3C4(CC4)C34CC4)n1)[C@H](CC(C)(C)C)CO2 [Compound 442] was tested, and the EC50 (Table 12) was less than 1000 nM and the Emax [3] was greater than 60%.

Cc1cccc(C)c1-c1cc2nc(n1)NS(=O)(=O)c1cccc(c1)C(=O)N(Cc1cncc(N(C)C34CC(C3)C4)n1)[C@H](CC(C)(C)C)CO2 [Compound 443] was tested, and the EC50 (Table 12) was less than 1000 nM and the Emax [3] was greater than 60%.

COCC(C)N(C)c1cncc(CN2C(=O)c3cccc(c3)S(=O)(=O)Nc3nc(cc(-c4c(C)cccc4C)n3)OC[C@H]2CC(C)(C)C)n1 (stereo partly drawn) [Compound 444] showed an EC50 (Table 12) of less than 1000 nM and an Emax [3] greater than 60%.

In the case of Cc1cccc(C)c1-c1cc2nc(n1)NS(=O)(=O)c1cccc(c1)C(=O)N(Cc1nccc(N(C)C3CC4(CCC4)C3)n1)[C@H](CC(C)(C)C)CO2 [Compound 445], the EC50 (Table 12) is reported as less than 1000 nM and the Emax [3] is reported as greater than 60%.

COC[C@@H](C)N(C)c1ccnc(CN2C(=O)c3cccc(c3)S(=O)(=O)Nc3nc(cc(-c4c(C)cccc4C)n3)OC[C@H]2CC(C)(C)C)n1 [Compound 446] was tested, and the EC50 (Table 12) was less than 1000 nM and the Emax [3] was greater than 60%.

Cc1cccc(C)c1-c1cc2nc(n1)NS(=O)(=O)c1cccc(c1)C(=O)N(Cc1nccc(N(C)C34CC(C3)C4)n1)[C@H](CC(C)(C)C)CO2 [Compound 447] gave an activation at 10 µM (Table 12) greater than 600%.
